Tested on: ent-kaurene synthase B (KSB)
Experiment: Properties of KSB with the phenyl-purified enzyme preparation (pH, Km, cations)
Assay type: biochemical, Cucurbita maxima L.
Settings: for effect of divalent cation on KSB activity: 0.1-50 mM as chlorides, instead of 5 mM Mg2+; for effect of divalent cation on KSB activity / optimal concentration of cation for KSB activity: FIG. 4; for optimal concentration of cation for KSB activity: cation as chloride instead of 5 mM Mg2+
Experimental: The mixture was incubated at 30° C. for 30 min, and the enzyme reaction was terminated by the addition of acetone (200 μL) and water (100 μL). The mixture was extracted with n-hexane (400 μL), and 300 μL alibuots of the extract were concentrated in vacuo and applied to a silica gel plate. After developing with n-hexane, the radioactivity of the silica gel of the ent-kaurene region (Rf 0.6-1.0) was determined. One unit of kaurene synthase activity was defined as the production of 1 pmol of ent-kaurene per minute.
The amount of [1-^3 H]CPP was 2.2 kBq and the incubation period was 15 min. The other conditions were the same as those for the enzyme assay. To determine the optimal pH, KPi buffer (50 mM) adjusted to a particular pH (pH 4.5 to 9.0) was used. […] The production of ent-kaurene was calculated and the Km value was determined from a Lineweaver-Burk plot.

SMILES	effect of divalent cation on KSB activity	effect on KSB activity in combination with 5 mM Mg2+ (added together with 5 mM Mg2+)	optimal concentration of cation for KSB activity	further results
[Cl][Fe][Cl] [Fe^2+]	weakly promoted KSB activity	–	–	–
C=C1CC[C@@H]2C(C)(C)CCC[C@@]2(C)[C@@H]1CC/C(C)=C/COP(=O)(O)OP(=O)(O)O [[15-^3 H]CPP, copalyl pyrophosphate]	–	–	–	Km (phenyl-purified enzyme preparation, CPP 7 to 480 nM, Lineweaver-Burk plot): 0.35 µM
[Ca+2].[Cl-].[Cl-] [Ca^2+]	showed no effects	inhibited KSB activity promoted by Mg^2+	–	–
[Cl-].[Cl-].[Co+2] [Co^2+]	promoted KSB activity	–	around 10 mM	–
[Cl][Mn][Cl] [Mn^2+]	promoted KSB activity	–	around 10 mM	–
[Cl-].[Cl-].[Mg+2] [Mg^2+]	promoted KSB activity	–	around 10 mM	–
O=C(O)CN(CCN(CC(=O)O)CC(=O)O)CC(=O)O [EDTA]	–	–	–	effect of EDTA on KSB activity (EDTA 1-100 mM): did not change KSB activity
[Ba+2].[Cl-].[Cl-] [Ba^2+]	showed no effects	inhibited KSB activity promoted by Mg^2+	–	–
[Cl][Ni][Cl] [Ni^2+]	weakly promoted KSB activity	–	–	–
[Cl][Cu][Cl] [Cu^2+]	showed no effects	inhibited KSB activity promoted by Mg^2+	–	concentration completely inhibiting the conversion promoted by 5 mM Mg2+ (added together with 5 mM Mg2+): above 0.5 mM

Source: US6020176A, “Kaurene synthase” (The Institute of Physical and Chemical Research, priority 1995, dated 2000)
